Measurements: a melting point compilation (Tetko et al.; mined from patent text by program, amines drawn as free bases though some values may be those of a salt)

melting point | SMILES
168 to 170 °C | CCC(C)(C)N=C(NC#N)Nc1cc(Br)cc(Br)c1
158 to 160 °C | OC1CNc2nc3ccccc3n2C1 (stereo not given)
156 to 157 °C | CSc1nc(CC2CCN(c3ccccc3)CC2)nc(C(=O)NCC(=O)O)c1O
223 to 228 °C | O=C(O)c1cc2cc(O)ccc2o1
211 to 213 °C | CCCc1ccc(-c2cc(NC(=O)C3Cc4ccccc4C3)n[nH]2)cc1
220 to 222 °C | Nc1cccc(Cl)c1-c1nc(-c2ccncc2)c(-c2ccc(Cl)cc2)[nH]1
150 to 153 °C | Cc1cccc(-c2cc(C(=O)O)n(C)n2)c1
89 to 90 °C | COCN1C(C)=C(C(=O)O)C(c2cccc(Cl)c2Cl)C(C(=O)OCOC(=O)C(C)(C)C)=C1C (single isomer, unassigned; (+))
134 to 136 °C | Clc1ccccc1CCN1CCN(c2n[nH]c3c2CCc2ccccc2-3)CC1
124 to 126 °C | CC(=O)OCCN1C2=NCCN2C(=O)c2ccccc21
132 to 133 °C | CC(C)NCC(O)(Cn1cncn1)c1ccc(Cl)cc1Cl (stereo not given)
92 to 93 °C | CCOC(=O)COc1cccc2c1OCC(Br)C2=O (stereo not given)
299 to 302 °C | CCCn1cc2c(C3C(=O)Nc4ccc(C#N)cc43)nc(NCc3ccncc3)nc2n1 (stereo not given)
187 to 190 °C | CC(=O)Nc1ccc2c3c1c(=O)c(C(=O)O)cn3C1CCCCC21 (stereo not given)
246 to 249 °C | CCOc1ccc(S(=O)(=O)n2nc(O)cc2N)cc1-c1nc2cccnc2c(=O)[nH]1
179 °C | OC1CSC(Oc2cnc(-c3cccnc3)c(F)c2)C(O)C1O (stereo not given)
210 °C | O=C(N[C@@H]1CCNC[C@H]1O)c1ccccc1 (relative stereo)
114 °C | CCOC(=O)c1ccc(-c2ccc3c(c2)C(Nc2ccc(Cl)cc2)CC(C)N3C(C)=O)cc1 (stereo not given)
80 to 81 °C | CC(CO)NC(=O)C(F)(F)F (stereo not given)
> 250 °C | CC(C)(CO)CNS(=O)(=O)c1ccc(NC=C2C(=O)Nc3ccc4ncsc4c32)cc1
204 to 206 °C | Oc1ccc(-c2nnc(-c3ccc(Oc4ccccc4)cc3)o2)cc1

melting point | SMILES
200 to 201 °C | CCc1[nH]cnc1-c1cc(C(C)(C)C)c(O)c(C(C)(C)C)c1
100 to 108 °C | COCC[C@H]1CN(c2cc(C)cc3c2C=Nc2ccccc2N3)CCN1C
211 to 212 °C | CCOC(=O)Cc1ccc(Nc2ncc3c(n2)N(C)C(=O)N(c2c(Cl)cccc2Cl)C3)cc1
216 to 217 °C | Nc1nc(C(=O)N2CCN(Cc3ccc4c(c3)OCO4)CC2)c(-c2ccncc2)s1
102 to 103 °C | Clc1ccc(COC(CNc2ccc(Cl)c(Cl)c2)Cn2ccnc2)cc1 (stereo not given)
166 to 170 °C | COC(=O)c1nc(-c2cnco2)cc(N)c1Cl
152 to 154 °C | CN(C)CCc1[nH]c2ccccc2c1CSc1nccn1C
108 to 112 °C | Cc1ccc(S(=O)(=O)N2CC[C@@H](O)C2)cc1
265 to 267 °C | O=C(Nc1nc[nH]n1)c1ccc(-c2ccc3nnn(Cc4ccc5ncccc5c4)c3n2)cc1F
84 to 85 °C | COc1ccc(-c2coc3cc(OCC(O)CN4CCNCC4)ccc3c2=O)cc1OC (stereo not given)
39 to 40 °C | CCCCNC(=O)Oc1ccccc1
> 350 °C | O=c1[nH][nH]c2c1c(O)nc1cc(Cl)c(Cl)cc12
185 to 186 °C | Cc1nn(-c2c(Cl)cc(C(F)(F)F)cc2Cl)nc1C(=O)Nc1ccccc1
104 to 107 °C | CSCC(=O)[C@H](Cc1ccccc1)NC(=O)[C@H](CC(C)C)NC(=O)CCc1ccccc1
123 to 125 °C | CN(C)c1ccc(C(=O)N2CCC(Nc3nc(Nc4cccc(C(F)(F)F)c4)nc(OCC(F)(F)F)n3)CC2)cc1
59 to 61 °C | Cn1c(Oc2ccc(N=C=S)cc2)nc2ccccc21
98 to 100 °C | N#Cn1c(-c2ccc(Cl)cc2)c([N+](=O)[O-])c(-c2ccc(Cl)c(Cl)c2)c1C(F)(F)F
259 to 260 °C | CCCOc1ccccc1C1=NC(=O)C2=NC(c3ccccc3)=NC2=N1
149 to 151 °C | N#CNC(=Nc1ccncc1)NCC(O)COc1ccc(Cl)cc1 (stereo not given)
115 to 117 °C | CCCCCS(=O)(=O)NC(=O)CCc1cc(C(C)C)nn1Cc1ccc(Cl)cc1Cl
119 °C | Clc1ccc(Oc2ccc(Cl)nn2)cc1

melting point | SMILES
125 °C | CC1SC(=O)NN=C1c1ccc2c(c1)C(C)(C)C(=O)N2C (stereo not given)
207 to 208 °C | Cc1nn2ccccc2c1C(=O)C1=CNCCC1
182 to 184 °C | Cc1cc(C)c(Nc2nc(C)ccc2S(=O)(=O)c2ccc(OCc3ccccn3)cc2)c(C)c1
130 to 131 °C | O=C(O)c1cccc2c1CC(N(CCCc1c[nH]c3c(F)cc(F)cc13)C1CCC1)CO2 (stereo not given)
110 °C | CCSc1c(O[C@@H]2CCC[C@H](N)C2)ccc2[nH]ncc12 (relative stereo)
44 to 46 °C | O=C(c1c(F)cccc1F)N1COCN(c2ccc(SC(F)(F)C(F)(F)C(F)(F)F)cc2F)C1=O
208 to 214 °C | O=C1Nc2ccccc2C(c2ccccc2F)CC1Br (stereo not given)
214 to 216 °C | CCCCc1oc2ccccc2c1-c1ncc(-c2ccc3cc(OCC(=O)O)ccc3c2)o1
108 to 109 °C | Cc1c(C)c(NCc2ccccc2)c2c(c1C)C(=O)C(C)(C)O2
129 to 131 °C | COc1cc(C(=O)Nc2ccccc2C(c2ccc(O)cc2)c2ccc(O)cc2)ccc1[N+](=O)[O-]
113 to 114 °C | O=C1OC2(C=Cc3ccccc3O2)c2ccccc21 (stereo not given)
63 to 63.5 °C | Fc1cccc(-c2cncnc2)c1
140 °C | COc1cc(OC)cc(Oc2ccc(C(=O)N(C(C)C)C3CCCCC3)cc2)c1
234 °C | CCOC(=O)C1=C(C)Nc2nc(N3CCOCC3)nc(N3CCOCC3)c2C1c1ccccc1C (stereo not given)
227 to 228 °C | N#Cc1cc(-c2c(C(N)=O)ccn2-c2ccc(F)cc2)ccc1OCC(F)(F)F
118 to 119 °C | CC[C@@H](C)NCc1cnc2c(C)c(NC(=O)c3ccc(OC[C@@H]4CCCO4)cc3)ccc2c1
166 to 168 °C | C=CS(=O)(=O)NCCCc1ccc(-c2ccc(=O)[nH]n2)cc1
176 to 178 °C | CCn1c(C)nc2cc(C(F)(F)F)c(Cl)c(N)c21
32 °C | CN(C)S(=O)(=O)n1cc(I)cn1
> 270 °C | CCOC(=O)CNc1ccc2oc3c(OC)ccc(C(=O)Nc4c(Cl)cncc4Cl)c3c2c1
102 to 105 °C | COc1ccc2c(c1)c(Cc1cc(=O)n(C3CCCCC3)[nH]1)c(C)n2Cc1ccccc1

SMILES | melting point
CCN(CC)C(=O)OC1c2ccccc2C(=O)N1c1ccc2ccc(Cl)nc2n1 (stereo not given) | 142 to 144 °C
CC1N=C(c2ccccc2Cl)c2cc([N+](=O)[O-])ccc2NC1=S (single isomer, unassigned; (+)) | 258 to 260 °C
CC#Cc1ncn2c1CN(C)C(=O)c1c(Cl)cccc1-2 | 243 to 244 °C
COC(=O)c1ccc(C#CC2(O)CN3CCC2CC3)nc1 (stereo not given) | 180 to 182 °C
CCOC(=O)CCC1CCN(c2ccc(C#N)c3ccccc23)CC1 | 106 to 107 °C
COc1c(O)cc2c(c1Sc1ccccc1)CCN(C)CC2 | 161 to 162 °C
CCC1N=C(c2ccccc2Cl)c2cc(CCC(=O)OC)sc2NC1=S (stereo not given) | 173 to 176 °C
